Biological target: T1, Human TRPC6 (Homo sapiens, UniProt Q9Y210)
T1 construct: expressed in transfected cells
T1 sequence (Q9Y210 1-931): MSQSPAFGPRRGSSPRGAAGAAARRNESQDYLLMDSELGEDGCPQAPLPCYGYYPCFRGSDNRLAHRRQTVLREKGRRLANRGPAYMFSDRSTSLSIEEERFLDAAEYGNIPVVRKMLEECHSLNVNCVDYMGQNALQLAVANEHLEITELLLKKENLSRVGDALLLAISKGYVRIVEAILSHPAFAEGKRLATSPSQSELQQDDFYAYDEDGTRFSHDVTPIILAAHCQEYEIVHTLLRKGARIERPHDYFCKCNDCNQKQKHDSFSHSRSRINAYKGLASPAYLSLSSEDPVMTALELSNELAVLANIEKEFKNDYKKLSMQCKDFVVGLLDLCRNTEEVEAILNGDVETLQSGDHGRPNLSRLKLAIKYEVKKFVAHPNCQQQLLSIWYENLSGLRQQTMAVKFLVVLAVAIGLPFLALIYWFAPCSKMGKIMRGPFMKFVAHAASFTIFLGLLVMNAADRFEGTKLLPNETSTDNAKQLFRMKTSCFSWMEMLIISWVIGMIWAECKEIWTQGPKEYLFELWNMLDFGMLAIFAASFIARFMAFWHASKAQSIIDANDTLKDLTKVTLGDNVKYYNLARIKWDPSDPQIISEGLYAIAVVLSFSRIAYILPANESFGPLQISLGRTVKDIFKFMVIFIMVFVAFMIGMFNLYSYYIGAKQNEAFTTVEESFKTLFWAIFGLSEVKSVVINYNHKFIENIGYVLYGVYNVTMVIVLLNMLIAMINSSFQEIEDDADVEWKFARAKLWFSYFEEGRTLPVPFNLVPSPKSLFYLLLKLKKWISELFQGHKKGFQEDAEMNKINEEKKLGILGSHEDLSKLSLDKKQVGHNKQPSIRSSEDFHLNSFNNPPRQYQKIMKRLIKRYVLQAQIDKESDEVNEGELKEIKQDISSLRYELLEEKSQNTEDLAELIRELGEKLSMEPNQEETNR
Assay: Evaluation of TRPC6 channel inhibitory activity (1), FLIPR Calcium 5 Assay Kit, OAG stimulation (Compound Nos. 1-1293)
Format: cell-based
Details: Human TRPC6 stably-expressing cells, OAG 30 μM, FLIPR Calcium 5 Assay Kit; read-out: Inhibitory activity (pIC50 class) (converted)
Procedure, shortened: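 Calcium influx read by FLIPR fluorescence in cells stably expressing human TRPC6, dye-loaded 30 min. Compounds preincubated 20 min, then OAG stimulation at 30 μM final. Inhibition fitted by four-parameter logistic regression to give pIC50, reported as +/++/+++ categories.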

IC50	SMILES
0.01 to 1 µM	N#Cc1ccc(-c2ccc(CCN)nc2)c(Oc2cnnc(N3CCCCC3)c2)c1 [Compound 78, 4-[6-(2-aminoethyl)pyridin-3-yl]-3-(6-piperidin-1-ylpyridazin-4-yl)oxybenzonitrile]
< 0.01 µM	Cn1nc(N2CC(F)(F)C(F)(F)C2)cc1Oc1cc(C#N)ccc1-c1ncc(CN)cn1 [compound 866, 4-[5-(aminomethyl)pyrimidin-2-yl]-3-[2-methyl-5-(3,3,4,4-tetrafluoropyrrolidin-1-yl)pyrazol-3-yl]oxybenzonitrile]
0.01 to 1 µM	N#Cc1ccc(-c2ccc(C(CN)C(F)F)cc2)c(Oc2cnnc(N3CCOCC3)c2)c1 (stereo not shown) [Compound 139, 4-[4-(3-amino-1,1-difluoropropan-2-yl)phenyl]-3-(6-morpholin-4 ylpyridazin-4-yl)oxybenzonitrile]
0.01 to 1 µM	CCN(CC)c1cc(Oc2cc(C#N)ccc2-c2ncc(CN)cn2)nc(C)n1 [compound 791, 4-[5-(aminomethyl)pyrimidin-2-yl]-3-[6-(diethylamino)-2-methylpyrimidin-4-yl]oxybenzonitrile]
> 1 µM	Cn1nc(C2CC2)cc1Oc1cc(C#N)ccc1-c1cc(N)ccn1 [compound 450, 4-(4-aminopyridin-2-yl)-3-(5-cyclopropyl-2-methylpyrazol-3-yl)oxybenzonitrile]
> 1 µM	Cc1nc(OCC2(C)COC2)cc(Oc2cc(C#N)ccc2-c2ncc(CCN)cn2)n1 [compound 885, 4-[5-(2-aminoethyl)pyrimidin-2-yl]-3-[2-methyl-6-[(3-methyloxetan-3-yl)methoxy]pyrimidin-4-yl]oxybenzonitrile]
0.01 to 1 µM	COC(C)(C)CN(C)c1cc(Oc2cc(C#N)ccc2-c2ncc(CCN)cn2)n(C)n1 [compound 868, 4-[5-(2-aminoethyl)pyrimidin-2-yl]-3-[5-[(2-methoxy-2-methylpropyl)-methylamino]-2-methylpyrazol-3-yl]oxybenzonitrile]
0.01 to 1 µM	CN(C)c1cc(Cc2cc(C#N)ccc2-c2ncc(CN)cn2)n(C)n1 [compound 1209, 4-[5-(aminomethyl)pyrimidin-2-yl]-3-[[5-(dimethylamino)-2-methylpyrazol-3-yl]methyl]benzonitrile]
< 0.01 µM	Cc1nc(NCC(C)C)cc(Oc2cc(C#N)ccc2-c2ncc(CN)cn2)n1 [compound 634, 4-[5-(aminomethyl)pyrimidin-2-yl]-3-[2-methyl-6-(2-methylpropylamino)pyrimidin-4-yl]oxybenzonitrile]
> 1 µM	Cc1nc(-c2cncc(F)c2)cn1Cc1cc(C#N)ccc1-c1ncc(CN)cn1 [compound 1192, 4-[5-(aminomethyl)pyrimidin-2-yl]-3-[[4-(5-fluoropyridin-3-yl)-2-methylimidazol-1-yl]methyl]benzonitrile]
< 0.01 µM	Cn1nc(C2CC2)cc1Oc1cc(C#N)ccc1-c1ccc(CN)cn1 [compound 327, 4-[5-(aminomethyl)pyridin-2-yl]-3-(5-cyclopropyl-2-methylpyrazol-3-yl)oxybenzonitrile]
0.01 to 1 µM	Cc1c(Oc2cc(F)ccc2-c2ncc(CCN)cn2)cnn1C(C)C [compound 984, 2-[2-[4-fluoro-2-(5-methyl-1-propan-2-ylpyrazol-4-yl)oxyphenyl]pyrimidin-5-yl]ethanamine]
< 0.01 µM	Cn1nc(C2CC2)cc1Oc1cc(F)ccc1-c1ncc(CCN)cn1 [compound 1017, 2-[2-[2-(5-cyclopropyl-2-methylpyrazol-3-yl)oxy-4-fluorophenyl]pyrimidin-5-yl]ethanamine]
0.01 to 1 µM	Cc1nc(Oc2cc(C#N)ccc2-c2ccc(C(CN)Oc3ccccc3)cc2)cc(N2CCOCC2)n1 (stereo not shown) [Compound 13, 4-[4-(2-Amino-1-phenoxyethyl)phenyl]-3-(2-methyl-6-morpholin-4-ylpyrimidin-4-yl)oxybenzonitrile]
< 0.01 µM	Cc1ccccc1-c1cn(Cc2cc(C#N)ccc2-c2ccc(CCN)cn2)c(C)n1 [compound 1151, 4-[5-(2-aminoethyl)pyridin-2-yl]-3-[[2-methyl-4-(2-methylphenyl)imidazol-1-yl]methyl]benzonitrile]
> 1 µM	Cc1nc(N2CCOCC2)cc(N(C)c2cc(C#N)ccc2-c2ccc3c(c2)COC32CN(C)C2)n1 [Compound 5, 3-[methyl-(2-methyl-6-morpholin-4-ylpyrimidin-4-yl)amino]-4-(1′-methylspiro[3H-2-benzofuran-1,3′-azetidin]-5-yl)benzonitrile]

IC50	SMILES
0.01 to 1 µM	Cn1nc(C2CC2)cc1Oc1cc(C#N)ccc1-c1ccc(C(=O)CN)cn1 [compound 923, 4-[5-(2-aminoacetyl)pyridin-2-yl]-3-(5-cyclopropyl-2-methylpyrazol-3-yl)oxybenzonitrile]
0.01 to 1 µM	N#Cc1ccc(-c2ncc(CCN)cn2)c(Oc2nnc(-c3ccccn3)s2)c1 [compound 703, 4-[5-(2-aminoethyl)pyrimidin-2-yl]-3-[(5-pyridin-2-yl-1,3,4-thiadiazol-2-yl)oxy]benzonitrile]
< 0.01 µM	Cc1nc(Oc2cc(C#N)ccc2-c2ncc(CN)cn2)cc(N2CCC[C@@H]2C)n1 [compound 795, 4-[5-(aminomethyl)pyrimidin-2-yl]-3-[2-methyl-6-[(2S)-2-methylpyrrolidin-1-yl]pyrimidin-4-yl]oxybenzonitrile]
0.01 to 1 µM	Cn1nc(Oc2cc(C#N)ccc2-c2ccc(CCN)cn2)cc1N1CCOCC1 [compound 557, 4-[5-(2-aminoethyl)pyridin-2-yl]-3-(1-methyl-5-morpholin-4-ylpyrazol-3-yl)oxybenzonitrile]
> 1 µM	Cc1nc(Oc2cc(C#N)ccc2-c2ccc(CCN)cn2)cc(N2CCN(S(C)(=O)=O)CC2)n1 [compound 654, 4-[5-(2-aminoethyl)pyridin-2-yl]-3-[2-methyl-6-(4-methylsulfonylpiperazin-1-yl)pyrimidin-4-yl]oxybenzonitrile]
< 0.01 µM	CN(CC1CC1)c1cc(Oc2cc(C#N)ccc2-c2ncc(CCN)cn2)n(C)n1 [compound 769, 4-[5-(2-aminoethyl)pyrimidin-2-yl]-3-[5-[cyclopropylmethyl(methyl)amino]-2-methylpyrazol-3-yl]oxybenzonitrile]
0.01 to 1 µM	Cc1nc(Oc2cc(C#N)ccc2-c2ccc(CCN)nc2)cc(-c2ccc(F)cc2)n1 [Compound 190, 4-[6-(2-aminoethyl)pyridin-3-yl]-3-[6-(4-fluorophenyl)-2-methylpyrimidin-4-yl]oxybenzonitrile]
< 0.01 µM	Cc1nc(Oc2cc(C#N)ccc2-c2ccc(CCN)cc2)cc(N2CCOCC2)n1 [Compound 7, 4-[4-(2-Aminoethyl)phenyl]-3-(2-methyl-6-morpholin-4-ylpyrimidin-4-yl)oxybenzonitrile]
> 1 µM	Cc1nc(Nc2cc(C#N)ccc2-c2ccc(C(=O)CN)cc2)cc(N2CCOCC2)n1 [Compound 4, 4-[4-(2-Aminoacetyl)phenyl]-3-[(2-methyl-6-morpholin-4-ylpyrimidin-4-yl)amino]benzonitrile]
< 0.01 µM	Cc1nc(Oc2cc(C#N)ccc2-c2ccc([C@H](O)CN)cn2)cc(-c2ccccc2)n1 [compound 525, 4-[5-[(1S)-2-amino-1-hydroxyethyl]pyridin-2-yl]-3-(2-methyl-6-phenylpyrimidin-4-yl)oxybenzonitrile]
< 0.01 µM	CC(C)c1cc(Oc2cc(C#N)ccc2-c2ncc(CCN)cn2)n(C)n1 [Compound 261, 4-[5-(2-Aminoethyl)pyrimidin-2-yl]-3-(2-methyl-5-propan-2-ylpyrazol-3-yl)oxybenzonitrile]
< 0.01 µM	CC(C)c1cn(Cc2cc(C#N)ccc2-c2ncc(CCN)cn2)nn1 [compound 1185, 4-[5-(2-aminoethyl)pyrimidin-2-yl]-3-[(4-propan-2-yltriazol-1-yl)methyl]benzonitrile]
0.01 to 1 µM	Cc1cc(Oc2cc(C#N)ccc2-c2ncc(OCCN)cn2)cc(N2CCOCC2)n1 [compound 387, 4-[5-(2-aminoethoxy)pyrimidin-2-yl]-3-(2-methyl-6-morpholin-4-ylpyridin-4-yl)oxybenzonitrile]
> 1 µM	CN(C)c1cc(Sc2cc(C#N)ccc2-c2ncc(CN)cn2)cnn1 [compound 1267, 4-[5-(aminomethyl)pyrimidin-2-yl]-3-[6-(dimethylamino)pyridazin-4-yl]sulfanylbenzonitrile]
0.01 to 1 µM	Cc1nc(-c2ccccn2)cn1Cc1cc(C#N)ccc1-c1ccc(CCN)cn1 [compound 1157, 4-[5-(2-aminoethyl)pyridin-2-yl]-3-[(2-methyl-4-pyridin-2-ylimidazol-1-yl)methyl]benzonitrile]

Source: patent US20230167073A1 (Teijin Pharma Limited, priority 2020, published 2023)
